Test results reported in the supplement of paper PMC10307832.

Assays:
Assay in all cases: relative viability (nuclei count vs DMSO), 5 days (fraction); higher = more cells survive
NCI-H596 = tested on: NCI-H596
How it was run: (§1)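 After 5 days of treatment, lung cancer cells in 1536-well plates were fixed and stained in a single step (final 0.05% Triton X-100, 1% formaldehyde, 1 ug/ml Hoechst) and their nuclei counted on 4× images. Treatment had been applied by pin tool the day after seeding as one drug alone or as a fixed anchor-drug dose with five library-drug doses (not always all listed) in √10 steps. Relative viability is the nuclei count of treated wells divided by that of vehicle wells, and values are medians of duplicate plates.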

NCI-H322M = tested on: NCI-H322M
How it was run: as §1

NCI-H1651 = tested on: NCI-H1651
How it was run: as §1

NCI-H661 = tested on: NCI-H661
How it was run: as §1

LU99A = tested on: LU99A
How it was run: as §1

LCLC-97TM1 = tested on: LCLC-97TM1
How it was run: as §1

LXF-289 = tested on: LXF-289
How it was run: as §1

BEN = tested on: BEN
How it was run: as §1

LC-2-ad = tested on: LC-2-ad
How it was run: as §1

NCI-H1666 = tested on: NCI-H1666
How it was run: as §1

NCI-H1944 = tested on: NCI-H1944
How it was run: as §1

NCI-H2342 = tested on: NCI-H2342
How it was run: as §1

NCI-H358 = tested on: NCI-H358
How it was run: as §1

HCC-15 = tested on: HCC-15
How it was run: as §1

NCI-H838 = tested on: NCI-H838
How it was run: as §1

HCC-78 = tested on: HCC-78
How it was run: as §1

LK-2 = tested on: LK-2
How it was run: as §1

SK-MES-1 = tested on: SK-MES-1
How it was run: as §1

ChaGo-K-1 = tested on: ChaGo-K-1
How it was run: as §1

PC-3 [JPC-3] = tested on: PC-3 [JPC-3]
How it was run: as §1

NCI-H2087 = tested on: NCI-H2087
How it was run: as §1

NCI-H650 = tested on: NCI-H650
How it was run: as §1

UMC-11 = tested on: UMC-11
How it was run: as §1

Structure (SMILES): O=C(O)c1ccc(-c2c[nH]c3ncc(-c4ccccc4)cc23)cc1C1CCCC1 + O=C(c1cc(Cc2n[nH]c(=O)c3ccccc23)ccc1F)N1CCN(C(=O)C2CC2)CC1 [Olaparib] (partner 8 µM)
- relative viability (NCI-H596; first compound 0.04 µM): 0.711
- relative viability (NCI-H596; first compound 0.1265 µM): 0.745
- relative viability (NCI-H596; first compound 0.4 µM): 0.749
- relative viability (NCI-H596; first compound 1.265 µM): 0.607
- relative viability (NCI-H322M; first compound 0.04 µM): 0.856
- relative viability (NCI-H322M; first compound 0.1265 µM): 0.718
- relative viability (NCI-H322M; first compound 0.4 µM): 0.661
- relative viability (NCI-H322M; first compound 1.265 µM): 0.554
- relative viability (NCI-H1651; first compound 0.04 µM): 0.17
- relative viability (NCI-H1651; first compound 0.1265 µM): 0.187
- relative viability (NCI-H1651; first compound 0.4 µM): 0.176
- relative viability (NCI-H1651; first compound 1.265 µM): 0.192
- relative viability (NCI-H661; first compound 0.04 µM): 0.698
- relative viability (NCI-H661; first compound 0.1265 µM): 0.772
- relative viability (NCI-H661; first compound 0.4 µM): 0.744
- relative viability (NCI-H661; first compound 1.265 µM): 0.656
- relative viability (LU99A; first compound 0.04 µM): 0.255
- relative viability (LU99A; first compound 0.1265 µM): 0.302
- relative viability (LU99A; first compound 0.4 µM): 0.255
- relative viability (LU99A; first compound 1.265 µM): 0.25
- relative viability (LCLC-97TM1; first compound 0.04 µM): 0.435
- relative viability (LCLC-97TM1; first compound 0.1265 µM): 0.54
- relative viability (LCLC-97TM1; first compound 0.4 µM): 0.396
- relative viability (LCLC-97TM1; first compound 1.265 µM): 0.258
- relative viability (LXF-289; first compound 0.04 µM): 1.07
- relative viability (LXF-289; first compound 0.1265 µM): 0.935
- relative viability (LXF-289; first compound 0.4 µM): 0.709
- relative viability (LXF-289; first compound 1.265 µM): 0.507
- relative viability (BEN; first compound 0.04 µM): 1.05
- relative viability (BEN; first compound 0.1265 µM): 1.06
- relative viability (BEN; first compound 0.4 µM): 1.09
- relative viability (BEN; first compound 1.265 µM): 0.944
- relative viability (LC-2-ad; first compound 0.04 µM): 0.651
- relative viability (LC-2-ad; first compound 0.1265 µM): 0.642
- relative viability (LC-2-ad; first compound 0.4 µM): 0.623
- relative viability (LC-2-ad; first compound 1.265 µM): 0.566
- relative viability (NCI-H1666; first compound 0.04 µM): 0.781
- relative viability (NCI-H1666; first compound 0.1265 µM): 0.742
- relative viability (NCI-H1666; first compound 0.4 µM): 0.741
- relative viability (NCI-H1666; first compound 1.265 µM): 0.678
- relative viability (NCI-H1944; first compound 0.04 µM): 0.421
- relative viability (NCI-H1944; first compound 0.1265 µM): 0.444
- relative viability (NCI-H1944; first compound 0.4 µM): 0.412
- relative viability (NCI-H1944; first compound 1.265 µM): 0.36
- relative viability (NCI-H2342; first compound 0.04 µM): 0.456
- relative viability (NCI-H2342; first compound 0.1265 µM): 0.445
- relative viability (NCI-H2342; first compound 0.4 µM): 0.501
- relative viability (NCI-H2342; first compound 1.265 µM): 0.446
- relative viability (NCI-H358; first compound 0.04 µM): 0.603
- relative viability (NCI-H358; first compound 0.1265 µM): 0.657
- relative viability (NCI-H358; first compound 0.4 µM): 0.529
- relative viability (NCI-H358; first compound 1.265 µM): 0.275
- relative viability (HCC-15; first compound 0.04 µM): 0.747
- relative viability (HCC-15; first compound 0.1265 µM): 0.671
- relative viability (HCC-15; first compound 0.4 µM): 0.56
- relative viability (HCC-15; first compound 1.265 µM): 0.377
- relative viability (NCI-H838; first compound 0.04 µM): 0.76
- relative viability (NCI-H838; first compound 0.1265 µM): 0.858
- relative viability (NCI-H838; first compound 0.4 µM): 0.732
- relative viability (NCI-H838; first compound 1.265 µM): 0.468
- relative viability (HCC-78; first compound 0.1265 µM): 0.814
- relative viability (HCC-78; first compound 0.4 µM): 0.784
- relative viability (HCC-78; first compound 1.265 µM): 0.71
- relative viability (LK-2; first compound 0.04 µM): 0.734
- relative viability (LK-2; first compound 0.1265 µM): 0.641
- relative viability (LK-2; first compound 0.4 µM): 0.636
- relative viability (LK-2; first compound 1.265 µM): 0.648
- relative viability (SK-MES-1; first compound 0.04 µM): 0.716
- relative viability (SK-MES-1; first compound 0.1265 µM): 0.687
- relative viability (SK-MES-1; first compound 0.4 µM): 0.58
- relative viability (SK-MES-1; first compound 1.265 µM): 0.286
- relative viability (ChaGo-K-1; first compound 0.04 µM): 0.418
- relative viability (ChaGo-K-1; first compound 0.1265 µM): 0.429
- relative viability (ChaGo-K-1; first compound 0.4 µM): 0.401
- relative viability (ChaGo-K-1; first compound 1.265 µM): 0.314
- relative viability (PC-3 [JPC-3]; first compound 0.04 µM): 1.07
- relative viability (PC-3 [JPC-3]; first compound 0.1265 µM): 1.07
- relative viability (PC-3 [JPC-3]; first compound 0.4 µM): 1.15
- relative viability (PC-3 [JPC-3]; first compound 1.265 µM): 0.919
- relative viability (NCI-H2087; first compound 0.04 µM): 0.686
- relative viability (NCI-H2087; first compound 0.1265 µM): 0.597
- relative viability (NCI-H2087; first compound 0.4 µM): 0.524
- relative viability (NCI-H2087; first compound 1.265 µM): 0.342
- relative viability (NCI-H650; first compound 0.04 µM): 0.372
- relative viability (NCI-H650; first compound 0.1265 µM): 0.432
- relative viability (NCI-H650; first compound 0.4 µM): 0.324
- relative viability (NCI-H650; first compound 1.265 µM): 0.256
- relative viability (UMC-11; first compound 0.04 µM): 0.366
- relative viability (UMC-11; first compound 0.1265 µM): 0.307
- relative viability (UMC-11; first compound 0.4 µM): 0.825
- relative viability (UMC-11; first compound 1.265 µM): 0.398
